Experimental data as given in patent publication US11566057B2, “Long-acting co-agonists of the glucagon and GLP-1 receptors” (Merck Sharp & Dohme Corp., priority 2017, dated 2023).
Numbered stars: 1 amine (or outer) side, 2 acyl side, 3 side chain; on linkers, the order of the positions; unused ones are H or OH. Square brackets hold non-standard residues; d marks the D form. Side chains are listed from the residue outwards. Peptide text beside a SMILES is read from it. * marks the point of attachment. C20 diacid = O=C(O)CCCCCCCCCCCCCCCCCCC(=O)*; Phe(4-CH2NH2) = NCc1ccc(C[C@H](N)C(=O)O)cc1; C18 diacid = O=C(O)CCCCCCCCCCCCCCCCC(=O)*; γGlu = O=C(O)[C@H](CCC(=O)[*:2])N[*:1]; Met(O2) = CS(=O)(=O)CC[C@H](N)C(=O)O; PEG5 = NCCOCCOCCOCCOCCOCCC(=O)O; αMeD = C[C@](N)(CC(=O)O)C(=O)O; AEEA = NCCOCCOCC(=O)O; Aib = CC(C)(N)C(=O)O

Molecular target: T1, human GCGR (Homo sapiens, UniProt P47871)
T1 construct: expressed in transfected cells; growth medium holds Blasticidin and Hygromycin
T1 sequence (P47871 26-477): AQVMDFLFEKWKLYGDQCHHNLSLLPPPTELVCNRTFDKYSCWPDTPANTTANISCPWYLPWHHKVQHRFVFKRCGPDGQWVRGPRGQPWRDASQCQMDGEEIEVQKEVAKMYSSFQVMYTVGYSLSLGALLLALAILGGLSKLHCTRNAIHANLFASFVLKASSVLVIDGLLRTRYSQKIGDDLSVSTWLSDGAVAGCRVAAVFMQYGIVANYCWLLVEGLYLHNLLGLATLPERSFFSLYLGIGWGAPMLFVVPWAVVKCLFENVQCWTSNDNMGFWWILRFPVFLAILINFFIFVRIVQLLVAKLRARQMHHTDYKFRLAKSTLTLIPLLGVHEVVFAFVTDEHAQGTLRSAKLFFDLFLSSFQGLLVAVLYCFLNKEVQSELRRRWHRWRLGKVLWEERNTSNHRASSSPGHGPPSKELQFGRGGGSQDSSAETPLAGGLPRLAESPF
Assay: cAMP activity assay at the Glucagon receptor (GCGR)
Assay type: cell-based
Details: for hGCGR/hGLP1R (hTone): ratio of GCGR EC50 to GLP1R EC50
Procedure: Activity of the peptides at the Glucagon receptor (GCGR) and GLP-1 receptor (GLP1R) was measured in a cAMP activity assay.
GCG/GLP-1 receptor co-agonist peptides were dissolved in 100% DMSO (dimethyl sulfoxide) and serially diluted to generate 10 point titrations. The peptide solutions were then transferred into 384-well assay plates (150 nL/well). Assay ready frozen cells expressing human GLP1R or human GCGR were suspended in growth media consisting of DMEM medium (GIBCO®), 10% FBS (GIBCO®), 1×NEAA(GIBCO®), 1×P/S (GIBCO®), 10 ug/mL Blasticidin (GIBCO®) and 200 μg/mL Hygromycin (GIBCO®). […] The cell suspensions (15 μL) were then added to the assay plates containing the peptide solutions (30,000 cells/well for human GCGR; 10,000 cells/well for human GLP1R). The cells were incubated for 1 hour at room temperature in the dark. Production of cAMP was determined using HitHunter™ cAMPXS kits (DiscoverX) following manufacturer protocol. The plates were incubated for overnight at room temperature in the dark. Luminescence was measured using an EnVision Multilabel plate reader (Perkin Elmer). Native GLP-1 and Glucagon (Bachem) are used as control peptides. EC50 values were calculated using uses a 4 parameter logistic fit based on the Levenberg-Marquardt algorithm.

Row | Compound | hGCGR/hGLP1R (hTone) | EC50 (cells expressing human GCGR, cAMP production, buffer with or without 20% human serum (not stated which), read-out: GCGR EC50 human)
1 | CC(C)C[C@H](NC(=O)[C@H](CC(C)C)NC(=O)[C@H](CCCCN)NC(=O)[C@H](CO)NC(=O)[C@H](Cc1ccc(O)cc1)NC(=O)[C@H](CC(=O)O)NC(=O)[C@H](CO)NC(=O)[C@@H](NC(=O)[C@H](Cc1ccccc1)NC(=O)[C@@H](NC(=O)CNC(=O)[C@H](CCC(N)=O)NC(=O)C(C)(C)NC(=O)[C@@H](N)Cc1c[nH]cn1)[C@@H](C)O)[C@@H](C)O)C(=O)N[C@@H](CC(=O)O)C(=O)N[C@@H](C)C(=O)N[C@@H](CCCNC(=N)N)C(=O)N[C@@H](C)C(=O)N[C@@H](C)C(=O)N[C@@H](CCCCNC(=O)COCCOCCNC(=O)COCCOCCNC(=O)CC[C@H](NC(=O)CCCCCCCCCCCCCCCCC(=O)O)C(=O)O)C(=O)N[C@@H](CC(=O)O)C(=O)N[C@@H](Cc1ccccc1)C(=O)N[C@H](C(=O)N[C@@H](CCC(N)=O)C(=O)N[C@@H](Cc1c[nH]c2ccccc12)C(=O)N[C@@H](CC(C)C)C(=O)N[C@@H](CCS(C)(=O)=O)C(=O)N[C@@H](CC(=O)O)C(=O)N[C@H](C(N)=O)[C@@H](C)O)C(C)C [TP597] (H-H[Aib]QGTFTSDYSKLLDARAAK([AEEA-AEEA-γGlu-C18 diacid])DFVQWL[Met(O2)]DT-NH2; N-terminus assumed) | 1.2 | –
2 | CC(C)C[C@H](NC(=O)[C@H](Cc1ccc(O)cc1)NC(=O)[C@H](CCCCN)NC(=O)[C@H](CO)NC(=O)[C@H](Cc1ccc(O)cc1)NC(=O)[C@H](CC(=O)O)NC(=O)[C@H](CO)NC(=O)[C@@H](NC(=O)[C@H](Cc1ccccc1)NC(=O)[C@@H](NC(=O)CNC(=O)[C@H](CCC(N)=O)NC(=O)C(C)(C)NC(=O)[C@@H](N)Cc1c[nH]cn1)[C@@H](C)O)[C@@H](C)O)C(=O)N[C@@H](CC(=O)O)C(=O)N[C@@H](C)C(=O)N[C@@H](CCCNC(=N)N)C(=O)N[C@@H](C)C(=O)N[C@@H](C)C(=O)N[C@@H](CCC(N)=O)C(=O)N[C@@H](CCCCNC(=O)CCOCCOCCOCCOCCOCCNC(=O)CC[C@H](NC(=O)CCCCCCCCCCCCCCCCC(=O)O)C(=O)O)C(=O)N[C@@H](Cc1ccccc1)C(=O)N[C@H](C(=O)N[C@@H](CCC(N)=O)C(=O)N[C@@H](Cc1c[nH]c2ccccc12)C(=O)N[C@@H](CC(C)C)C(=O)N[C@@H](CCS(C)(=O)=O)C(=O)N[C@@](C)(CC(=O)O)C(=O)N[C@H](C(N)=O)[C@@H](C)O)C(C)C [TP608] (H-H[Aib]QGTFTSDYSKYLDARAAQK([PEG5-γGlu-C18 diacid])FVQWL[Met(O2)][αMeD]T-NH2) | 0.9 | –
3 | CC(C)C[C@H](NC(=O)[C@H](Cc1ccc(O)cc1)NC(=O)[C@H](CCCCN)NC(=O)[C@H](CO)NC(=O)[C@H](Cc1ccc(O)cc1)NC(=O)[C@H](CC(=O)O)NC(=O)[C@H](CO)NC(=O)[C@@H](NC(=O)[C@H](Cc1ccccc1)NC(=O)[C@@H](NC(=O)CNC(=O)[C@H](CCC(N)=O)NC(=O)C(C)(C)NC(=O)[C@@H](N)Cc1c[nH]cn1)[C@@H](C)O)[C@@H](C)O)C(=O)N[C@@H](CC(=O)O)C(=O)N[C@@H](C)C(=O)N[C@@H](CCCNC(=N)N)C(=O)N[C@@H](C)C(=O)N[C@@H](C)C(=O)N[C@@H](CCC(N)=O)C(=O)N[C@@H](CC(=O)O)C(=O)N[C@@H](Cc1ccccc1)C(=O)N[C@H](C(=O)N[C@@H](Cc1ccc(CNC(=O)CC[C@H](NC(=O)CCCCCCCCCCCCCCCCC(=O)O)C(=O)O)cc1)C(=O)N[C@@H](Cc1c[nH]c2ccccc12)C(=O)N[C@@H](CC(C)C)C(=O)N[C@@H](CC(C)C)C(=O)N[C@@H](CC(=O)O)C(=O)N[C@H](C(N)=O)[C@@H](C)O)C(C)C [TP639] (H-H[Aib]QGTFTSDYSKYLDARAAQDFV[Phe(4-CH2NH2)]([γGlu-C18 diacid])WLLDT-NH2; N-terminus assumed) | 1.6 | –
4 | CC(C)C[C@H](NC(=O)[C@H](CC(C)C)NC(=O)[C@H](CCCCN)NC(=O)[C@H](CO)NC(=O)[C@H](Cc1ccc(O)cc1)NC(=O)[C@H](CC(=O)O)NC(=O)[C@H](CO)NC(=O)[C@@H](NC(=O)[C@H](Cc1ccccc1)NC(=O)[C@@H](NC(=O)CNC(=O)[C@H](CCC(N)=O)NC(=O)C(C)(C)NC(=O)[C@@H](N)Cc1c[nH]cn1)[C@@H](C)O)[C@@H](C)O)C(=O)N[C@@H](CC(=O)O)C(=O)N[C@@H](C)C(=O)N[C@@H](CCCNC(=N)N)C(=O)N[C@@H](C)C(=O)N[C@@H](C)C(=O)N[C@@H](CCCCNC(=O)COCCOCCNC(=O)COCCOCCNC(=O)CC[C@H](NC(=O)CCCCCCCCCCCCCCCCC(=O)O)C(=O)O)C(=O)N[C@@H](CC(=O)O)C(=O)N[C@@H](Cc1ccccc1)C(=O)N[C@H](C(=O)N[C@@H](CCC(N)=O)C(=O)N[C@@H](Cc1c[nH]c2ccccc12)C(=O)N[C@@H](CC(C)C)C(=O)N[C@@H](CCS(C)(=O)=O)C(=O)N[C@@](C)(CC(=O)O)C(=O)N[C@H](C(N)=O)[C@@H](C)O)C(C)C [TP640] (H-H[Aib]QGTFTSDYSKLLDARAAK([AEEA-AEEA-γGlu-C18 diacid])DFVQWL[Met(O2)][αMeD]T-NH2) | 0.8 | –

The remaining lines, values ahead:

Row | hGCGR/hGLP1R (hTone) | EC50 (cells expressing human GCGR, cAMP production, buffer with or without 20% human serum (not stated which), read-out: GCGR EC50 human) | Compound
5 | 2.4 | – | CC(C)C[C@H](NC(=O)[C@H](Cc1ccc(O)cc1)NC(=O)[C@H](CCCCN)NC(=O)[C@H](CO)NC(=O)[C@H](Cc1ccc(O)cc1)NC(=O)[C@H](CC(=O)O)NC(=O)[C@H](CO)NC(=O)[C@@H](NC(=O)[C@H](Cc1ccccc1)NC(=O)[C@@H](NC(=O)CNC(=O)[C@H](CCC(N)=O)NC(=O)C(C)(C)NC(=O)[C@@H](N)Cc1c[nH]cn1)[C@@H](C)O)[C@@H](C)O)C(=O)N[C@@H](CC(=O)O)C(=O)N[C@@H](C)C(=O)N[C@@H](CCCNC(=N)N)C(=O)N[C@@H](C)C(=O)N[C@@H](C)C(=O)N[C@@H](CCCCNC(=O)COCCOCCNC(=O)COCCOCCNC(=O)CC[C@H](NC(=O)CCCCCCCCCCCCCCCCCCC(=O)O)C(=O)O)C(=O)N[C@@H](CC(=O)O)C(=O)N[C@@H](Cc1ccccc1)C(=O)N[C@H](C(=O)N[C@@H](CCC(N)=O)C(=O)N[C@@H](Cc1c[nH]c2ccccc12)C(=O)N[C@@H](CC(C)C)C(=O)N[C@@H](CCS(C)(=O)=O)C(=O)N[C@@](C)(CC(=O)O)C(=O)N[C@H](C(N)=O)[C@@H](C)O)C(C)C [TP565] (H-H[Aib]QGTFTSDYSKYLDARAAK([AEEA-AEEA-γGlu-C20 diacid])DFVQWL[Met(O2)][αMeD]T-NH2; N-terminus assumed)
6 | 2.3 | – | CC(C)C[C@H](NC(=O)[C@H](Cc1ccc(O)cc1)NC(=O)[C@H](CCCCN)NC(=O)[C@H](CO)NC(=O)[C@H](Cc1ccc(O)cc1)NC(=O)[C@H](CC(=O)O)NC(=O)[C@H](CO)NC(=O)[C@@H](NC(=O)[C@H](Cc1ccccc1)NC(=O)[C@@H](NC(=O)CNC(=O)[C@H](CCC(N)=O)NC(=O)C(C)(C)NC(=O)[C@@H](N)Cc1c[nH]cn1)[C@@H](C)O)[C@@H](C)O)C(=O)N[C@@H](CC(=O)O)C(=O)N[C@@H](C)C(=O)N[C@@H](CCCCN)C(=O)N[C@@H](C)C(=O)N[C@@H](C)C(=O)N[C@@H](CCCCNC(=O)COCCOCCNC(=O)COCCOCCNC(=O)CC[C@H](NC(=O)CCCCCCCCCCCCCCCCC(=O)O)C(=O)O)C(=O)N[C@@H](CC(=O)O)C(=O)N[C@@H](Cc1ccccc1)C(=O)N[C@H](C(=O)N[C@@H](CCC(N)=O)C(=O)N[C@@H](Cc1c[nH]c2ccccc12)C(=O)N[C@@H](CC(C)C)C(=O)N[C@@H](CCS(C)(=O)=O)C(=O)N[C@@H](CC(=O)O)C(=O)N[C@H](C(N)=O)[C@@H](C)O)C(C)C [TP598] (H-H[Aib]QGTFTSDYSKYLDAKAAK([AEEA-AEEA-γGlu-C18 diacid])DFVQWL[Met(O2)]DT-NH2; N-terminus assumed)
7 | – | > 4.9 nM | CC(C)C[C@H](NC(=O)[C@H](Cc1ccc(O)cc1)NC(=O)[C@H](CCC(=O)O)NC(=O)[C@H](CO)NC(=O)[C@H](Cc1ccc(O)cc1)NC(=O)[C@H](CC(=O)O)NC(=O)[C@H](CO)NC(=O)[C@@H](NC(=O)[C@H](Cc1ccccc1)NC(=O)[C@@H](NC(=O)CNC(=O)[C@H](CCC(N)=O)NC(=O)C(C)(C)NC(=O)[C@@H](N)Cc1c[nH]cn1)[C@@H](C)O)[C@@H](C)O)C(=O)N[C@@H](CC(=O)O)C(=O)N[C@@H](CCCCN)C(=O)N[C@@H](CCCNC(=N)N)C(=O)N[C@@H](C)C(=O)N[C@@H](C)C(=O)N[C@@H](CCC(N)=O)C(=O)N[C@@H](CC(=O)O)C(=O)N[C@@H](Cc1ccccc1)C(=O)N[C@H](C(=O)N[C@@H](CCCCNC(=O)COCCOCCNC(=O)COCCOCCNC(=O)CC[C@H](NC(=O)CCCCCCCCCCCCCCCCC(=O)O)C(=O)O)C(=O)N[C@@H](Cc1c[nH]c2ccccc12)C(=O)N[C@@H](CC(C)C)C(=O)N[C@@H](CCS(C)(=O)=O)C(=O)N[C@@H](CC(=O)O)C(=O)N[C@H](C(N)=O)[C@@H](C)O)C(C)C [TP700] (H-H[Aib]QGTFTSDYSEYLDKRAAQDFVK([AEEA-AEEA-γGlu-C18 diacid])WL[Met(O2)]DT-NH2)
